The target in one assay is T1, ULK1 (Homo sapiens, UniProt O75385).
T1 construct: purchased MRC PPU Reagents and Services, Dundee, Scotland
T1 sequence (O75385 1-1050): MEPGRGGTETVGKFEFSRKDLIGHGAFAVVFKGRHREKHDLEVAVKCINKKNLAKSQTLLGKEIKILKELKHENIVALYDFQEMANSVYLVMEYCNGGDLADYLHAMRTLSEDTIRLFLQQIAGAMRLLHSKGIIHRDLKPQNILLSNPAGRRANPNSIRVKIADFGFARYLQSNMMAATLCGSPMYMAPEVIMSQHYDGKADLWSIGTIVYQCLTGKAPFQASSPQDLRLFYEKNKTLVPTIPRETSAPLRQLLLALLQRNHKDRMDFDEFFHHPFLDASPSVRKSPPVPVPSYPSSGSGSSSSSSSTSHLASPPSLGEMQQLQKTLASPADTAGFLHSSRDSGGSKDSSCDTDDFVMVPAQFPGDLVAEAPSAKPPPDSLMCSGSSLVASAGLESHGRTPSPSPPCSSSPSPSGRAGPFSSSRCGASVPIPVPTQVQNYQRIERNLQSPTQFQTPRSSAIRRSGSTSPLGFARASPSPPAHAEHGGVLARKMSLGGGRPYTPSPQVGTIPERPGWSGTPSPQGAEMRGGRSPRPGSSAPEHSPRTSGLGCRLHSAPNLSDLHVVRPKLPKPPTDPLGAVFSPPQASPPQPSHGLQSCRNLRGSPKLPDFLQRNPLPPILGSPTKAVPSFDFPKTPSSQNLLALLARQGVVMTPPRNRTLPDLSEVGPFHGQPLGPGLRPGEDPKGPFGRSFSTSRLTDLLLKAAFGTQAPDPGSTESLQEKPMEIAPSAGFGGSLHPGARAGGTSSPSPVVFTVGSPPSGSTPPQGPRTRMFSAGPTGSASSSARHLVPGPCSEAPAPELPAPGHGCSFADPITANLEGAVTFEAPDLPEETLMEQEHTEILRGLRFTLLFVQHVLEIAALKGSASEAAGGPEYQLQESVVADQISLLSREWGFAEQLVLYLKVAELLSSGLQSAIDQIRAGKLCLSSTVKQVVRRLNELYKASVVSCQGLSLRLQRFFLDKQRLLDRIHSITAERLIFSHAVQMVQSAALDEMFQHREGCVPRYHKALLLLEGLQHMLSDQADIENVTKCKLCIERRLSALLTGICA
Put plainly: ULK1 ADP Hunter Plus kinase activity assay. The format is biochemical. Particulars: resynthesized samples; mean potency in parenthesis, n = 5; read-out: IC50 against ULK1 (converted).

Another assay relates to LC3 flux in U2OS cells. Description: Autophagic flux: LC3-II western blot with/without BafA1 in U2OS cells. Particulars: U2OS. In kind it is cell-based, human. How it is done: (§1) U2OS (human osteosarcoma-derived) cells were cultured in DMEM supplemented with 10% foetal bovine serum, 100 U/ml Penicillin and […] L-glutamine. Cells were pre-treated with compounds at the indicated concentrations for 60 min followed by treatments with EBSS or EBSS combined with/without 50 nM Bafilomycin A1 (Enzo Life Sciences) for a further 60 or 120 min with/without inhibitors, as indicated in figures/figure legends.
(§2) Prior to western blot analysis, cells were washed twice in ice-cold PBS and lysed in buffer containing 50 mM HEPES pH 7.4, 150 mM NaCl, 1 mM EDTA, 10% Glycerol, 0.5% NP-40, 1 mM DTT, supplemented with phosphatase inhibitors (1.15 mM sodium molybdate, 4 mM sodium tartrate, 0.01 M β-glycerophosphate, 1 mM sodium fluoride, 1 mM sodium orthovanadate) and protease inhibitor tablets (Roche) according to manufacturer's instructions. Lysates were then spun at 20 000×g for 10 min and the supernatant was collected for protein content estimation using Protein Assay Dye Reagent Concentrate from Bio-Rad. 4× LDS was added to the lysate (final dilution 1×) prior to heating at 95°C for 5 min. Electrophoresis and transfer to PVDF membranes was performed using standard protocols. Membranes were blocked in 5% milk in TBS-T prior to incubation with primary antibodies (in 5% milk/TBS-T for ULK1, pS555 (human S556) ULK1, pS757 (human S758) ULK1, pS318-ATG13, ATG13, and in 5% BSA/TBS-T for LC3 and α-Tubulin) under rotation overnight at 4°C followed by washes in TBS-T and incubation with HRP-conjugated secondary antibodies (in 5% milk in TBS-T) for 60 min at room temperature. Membranes were washed in TBS-T before application of ECL reagent (GE healthcare) and development on hypersensitive X-ray films (GE healthcare) (Figures 5A, 6C and Supplementary Figure S7C) or using BIO-RAD Clarity^TM western blotting substrate (Supplementary Figure S6C and Supplementary Figure S7A) and a BIO-RAD ChemiDoc^TM imaging system.
(§3) Quantification of western blots was performed with band densitometry analysis using ImageJ. Quantification of LC3 puncta was performed using either the ITCN plugging in ImageJ or Volocity. One-way or two-way Anova (using GraphPad Prism) followed by a post-hoc test, was used for statistical analysis of western blots and immunofluorescence as indicated in figure legends.
Background: A western blot detects proteins with antibodies after separation by electrophoresis.

Another assay has as its system PI3Kδ. Further details: method as in ChEMBL database. Particulars: statement in discussion on published selectivity; ref ChEMBL database; cited from earlier work.
A further assay addresses AMPK α1β2ɣ1 (Homo sapiens, UniProt O43741+P54619+Q13131). Description: AMPK ADP Hunter Plus kinase activity assay.
A further assay concerns VPS34 (WIPI2 puncta). Description: Cellular VPS34 activity: WIPI2 puncta immunofluorescence in U2OS cells. In kind it is cell-based, human. How it is done:
as §1
Prior to immunofluorescence, cells were grown on glass coverslips to ∼60% confluency. Cells were washed in PBS prior to fixation with 3.7% PFA/10 mM HEPES pH 7.0 at room temperature for 20 min. PFA was quenched using DMEM/10 mM HEPES pH 7.0/0.02% NaN3, followed by permeabilisation with 0.2% NP-40 in PBS for 5 min, followed by blocking with 1% BSA/PBS/0.02% NaN3. Primary antibody incubation was at room temperature for 60 min, followed by two 10-minute washes, then fluorescent secondary antibody incubation for 30 min and further washes (all in blocking buffer) before mounting onto glass slides. A wide field Nikon TS microscope was used for image capturing.
as §3

A further assay relates to AMPK (ULK1 pS556). Put plainly: Upstream AMPK activity: ULK1 pS556 western blot in U2OS cells. In kind it is cell-based, human. Particulars: 100 nM (VPS34-IN1 500 nM), 60 min pre-treatment, ± EBSS 60 min. Here is the method:
as §1
as §2, with “Lysates” for “Prior to western blot analysis, cells were washed twice in ice-cold PBS and lysed in buffer containing 50 mM HEPES pH 7.4, 150 mM NaCl, 1 mM EDTA, 10% Glycerol, 0.5% NP-40, 1 mM DTT, supplemented with phosphatase inhibitors (1.15 mM sodium molybdate, 4 mM sodium tartrate, 0.01 M β-glycerophosphate, 1 mM sodium fluoride, 1 mM sodium orthovanadate) and protease inhibitor tablets (Roche) according to manufacturer's instructions. Lysates”
as §3

The target of the next assay is VPS34 (Homo sapiens, UniProt Q8NEB9). Description: VPS34 ADP Hunter Plus kinase activity assay.
Sequence of VPS34 (Q8NEB9 whole entry): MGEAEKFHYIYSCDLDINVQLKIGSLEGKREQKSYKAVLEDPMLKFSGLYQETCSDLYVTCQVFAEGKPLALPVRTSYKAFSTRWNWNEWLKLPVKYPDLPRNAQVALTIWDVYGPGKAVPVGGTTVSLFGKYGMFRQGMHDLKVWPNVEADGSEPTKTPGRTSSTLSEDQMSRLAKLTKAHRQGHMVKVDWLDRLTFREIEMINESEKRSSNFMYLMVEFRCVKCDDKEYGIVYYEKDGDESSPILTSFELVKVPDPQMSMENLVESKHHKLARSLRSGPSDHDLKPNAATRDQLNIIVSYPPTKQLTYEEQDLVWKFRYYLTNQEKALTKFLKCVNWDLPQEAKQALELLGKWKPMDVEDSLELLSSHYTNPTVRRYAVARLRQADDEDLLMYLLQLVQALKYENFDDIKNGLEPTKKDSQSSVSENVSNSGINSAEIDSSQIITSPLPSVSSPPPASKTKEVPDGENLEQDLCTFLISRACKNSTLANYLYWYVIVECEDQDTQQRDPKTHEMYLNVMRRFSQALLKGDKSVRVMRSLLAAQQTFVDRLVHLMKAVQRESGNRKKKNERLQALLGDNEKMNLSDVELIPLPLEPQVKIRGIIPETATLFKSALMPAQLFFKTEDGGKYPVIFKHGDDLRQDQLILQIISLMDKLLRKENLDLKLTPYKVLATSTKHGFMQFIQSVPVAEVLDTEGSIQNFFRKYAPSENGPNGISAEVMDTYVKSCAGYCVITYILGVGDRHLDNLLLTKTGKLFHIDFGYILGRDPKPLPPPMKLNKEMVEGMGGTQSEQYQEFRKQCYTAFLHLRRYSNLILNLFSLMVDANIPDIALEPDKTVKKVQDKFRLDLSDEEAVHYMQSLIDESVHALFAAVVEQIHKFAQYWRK
The next assay has as its system mTOR (ULK1 pS758). Description: Upstream mTOR activity: ULK1 pS758 western blot in U2OS cells. The format is cell-based, human. Particulars: 100 nM (VPS34-IN1 500 nM), 60 min pre-treatment, ± EBSS 60 min. Here is the method: as §1
as §2, with “Lysates” for “Prior to western blot analysis, cells were washed twice in ice-cold PBS and lysed in buffer containing 50 mM HEPES pH 7.4, 150 mM NaCl, 1 mM EDTA, 10% Glycerol, 0.5% NP-40, 1 mM DTT, supplemented with phosphatase inhibitors (1.15 mM sodium molybdate, 4 mM sodium tartrate, 0.01 M β-glycerophosphate, 1 mM sodium fluoride, 1 mM sodium orthovanadate) and protease inhibitor tablets (Roche) according to manufacturer's instructions. Lysates”
as §3

Where “and” joins values, the source holds several entries; their conditions need not be identical. Equal values may be shown once. Bounds are passed on as bounds.

Broadly, the IC50 is the concentration that gives 50% inhibition.

Sequence of AMPK α1β2ɣ1 (Q13131 whole entry): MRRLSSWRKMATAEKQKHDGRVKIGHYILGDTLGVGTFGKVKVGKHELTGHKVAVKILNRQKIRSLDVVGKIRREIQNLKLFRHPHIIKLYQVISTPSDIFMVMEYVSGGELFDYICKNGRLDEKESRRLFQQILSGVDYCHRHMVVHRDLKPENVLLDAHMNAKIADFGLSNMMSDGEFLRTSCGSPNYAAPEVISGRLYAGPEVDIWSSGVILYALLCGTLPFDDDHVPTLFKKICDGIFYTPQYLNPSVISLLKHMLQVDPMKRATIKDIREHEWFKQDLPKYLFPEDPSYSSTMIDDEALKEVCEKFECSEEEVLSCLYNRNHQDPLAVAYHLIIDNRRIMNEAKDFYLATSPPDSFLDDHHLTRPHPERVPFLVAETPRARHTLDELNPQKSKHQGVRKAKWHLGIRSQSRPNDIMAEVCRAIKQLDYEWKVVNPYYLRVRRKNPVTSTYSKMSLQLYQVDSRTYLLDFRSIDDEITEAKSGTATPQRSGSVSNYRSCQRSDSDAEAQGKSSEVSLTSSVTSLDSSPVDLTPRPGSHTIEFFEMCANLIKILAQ
Sequence of AMPK α1β2ɣ1 (O43741 whole entry partner): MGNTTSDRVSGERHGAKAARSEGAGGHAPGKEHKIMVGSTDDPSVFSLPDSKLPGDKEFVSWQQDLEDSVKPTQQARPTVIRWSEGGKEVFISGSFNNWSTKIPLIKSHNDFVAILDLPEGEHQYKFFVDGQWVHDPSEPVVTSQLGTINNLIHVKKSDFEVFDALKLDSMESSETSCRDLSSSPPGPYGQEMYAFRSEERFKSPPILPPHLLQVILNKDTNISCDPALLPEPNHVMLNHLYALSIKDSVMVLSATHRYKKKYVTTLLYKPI
Sequence of AMPK α1β2ɣ1 (P54619 whole entry partner): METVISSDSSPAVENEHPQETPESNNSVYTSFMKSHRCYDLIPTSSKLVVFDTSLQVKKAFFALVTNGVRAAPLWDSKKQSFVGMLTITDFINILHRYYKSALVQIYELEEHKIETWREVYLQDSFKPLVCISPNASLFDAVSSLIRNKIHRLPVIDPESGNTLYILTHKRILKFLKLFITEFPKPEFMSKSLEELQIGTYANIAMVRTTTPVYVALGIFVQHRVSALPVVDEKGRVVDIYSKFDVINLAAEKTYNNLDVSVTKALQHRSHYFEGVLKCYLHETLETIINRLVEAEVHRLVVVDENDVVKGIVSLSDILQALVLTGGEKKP

For `O=c1cc(N2CCOCC2)nc2n(Cc3cccc(Cl)c3Cl)c(C3CC3)nn12` [GSK2358994A], the IC50 on ULK1 was more than 100000 nM; at AMPK α1β2ɣ1, more than 100000 nM; on VPS34 (IC50 against VPS34, resynthesized samples, mean potency in parenthesis, n = 5) it was 8.6 nM and 9 nM; at VPS34 (pIC50 against VPS34, original PKIS samples, concentration-dependent retest of screen hits), less than 1000 nM; at VPS34 (pIC50 against VPS34, resynthesized samples, 50 µM ATP (KM app), mean ± SD, n = 5), 8.51 nM. Also, the “Effect on LC3 flux under EBSS starvation” value in the assay with LC3 flux in U2OS cells (100 nM, 60 min pre-treatment then 60 min EBSS) was “significantly reduced LC3 flux”. Also, the “Concentration blocking EBSS-induced autophagy (LC3) flux” value with LC3 flux in U2OS cells (EBSS + 50 nM BafA1, as low as, greater effect at 100 nM) is given as not above 10 nM. Moreover, the “Potency against PI3Kδ” value with PI3Kδ is listed as “potent against PI3Kδ”. Further, the “Effect on EBSS-induced WIPI2 puncta” value in the assay on VPS34 (WIPI2 puncta) (100 nM, 60 min pre-treatment then 60 min EBSS, vs EBSS only) is recorded as “significantly reduced”. In the assay with VPS34 (WIPI2 puncta) (EBSS, as low as), the “Concentration working in cells (WIPI2 puncta reduction)” value is on record as not above 100 nM. Further, the “Effect on AMPK activity (pS556 ULK1)” value in the assay on AMPK (ULK1 pS556) was “unaffected”. In addition, at VPS34 (varying ATP below 200 µM, Michaelis–Menten and Lineweaver–Burk plots), the “Mechanism of inhibition of VPS34 with respect to ATP” value was “primarily ATP competitive inhibition”. Also, at VPS34 (varying PI:PS below 12 µM), the “Mechanism of inhibition of VPS34 with respect to PI:PS” value is recorded as “clear non-competitive inhibition”. In the assay on mTOR (ULK1 pS758), the “Effect on mTORC1 activity (pS758 ULK1)” value was “unaffected”.
